In patent publication US20020173424A1, “Heterocyclyl-substituted benzoylcyclohexandiones, their preparation, and their use as herbicides” (priority 2000, published 2002):

How the values were obtained:
Setaria species = test: Comparative experiment, post-emergence action against Setaria species; assay type: in vivo; conditions: even at a lower application rate
Protocol: Seeds of monocotyledonous and dicotyledonous weeds are placed in sandy loam soil in cardboard pots, covered with soil and grown in the greenhouse under good growth conditions. Two to three weeks after sowing, the experimental plants are treated at the three-leaf stage. The compounds according to the invention, which are formulated as wettable powders or as emulsion concentrates, are sprayed at a rate of 1 kg of active substance or less per hectare (converted) onto the green plant organs at an application rate of 600 to 800 l of water per ha (converted). After the experimental plants have remained in the greenhouse for approx. 3 to 4 weeks under optimal growth conditions, the effect of the compositions is scored visually in comparison with untreated controls. The compounds according to the invention also have a good herbicidal action against a broad spectrum of economically important monocotyledonous and dicotyledonous harmful plants when applied post-emergence. A large number of compositions according to the invention have an outstanding herbicidal action against the harmful plants.
5. Comparative Experiments
Analogously to the experimental conditions mentioned under item 2 (post-emergence herbicidal action), compound No. 1.1 according to the invention was compared with a prior-art compound with regard to its effect against Setaria species.

## CS(=O)(=O)c1ccc(C(=O)C2C(=O)CCCC2=O)c(Cl)c1C1=NOC2OCCC12 (centres unmarked) [1.1, 2-[2-chloro-4-methylsulfonyl-3-(3a,4,5,6a-tetrahydrofuro-[3,2-d]isoxazol-3-yl)benzoyl]cyclohexane-1,3-dione]
Setaria species
  action against Setaria species compared with prior-art compound: more potent action against Setaria species than the prior-art compound

## CCS(=O)(=O)c1ccc(C(=O)C2C(=O)CCCC2=O)c(Cl)c1C1=NOC2OCCC12 (centres unmarked) [1.2, 2-[2-chloro-4-ethylsulfonyl-3-(3a,4,5,6a-tetrahydrofuro[3,2-d]isoxazol-3-yl)benzoyl]cyclohexane-1,3-dione]
other
  melting point: 99 °C
